# Measurements taken from US20040171566A1, “Antisense modulation of p38 mitogen activated protein kinase expression” (priority 1999, published 2004).
# e = 2'-O-(2-methoxyethyl) (MOE); d = 2'-deoxy (DNA)
# What was measured:
# mouse p38α mRNA = test: Mouse p38α mRNA levels in bEND.3 cells, quantitative real-time PCR; format: cell-based; parameters: % Inhib. mouse p38α: concentration or dose not given beside the values; settings: bEND.3 cells, mRNA by quantitative real-time PCR, average of two experiments
# Description: (§1) Quantitation of p38α mRNA levels was accomplished by real-time quantitative PCR using the ABI PRISM™ 7600, 7700, or 7900 Sequence Detection System (PE-Applied Biosystems, Foster City, Calif.) according to manufacturer's instructions. This is a closed-tube, non-gel-based, fluorescence detection system which allows high-throughput quantitation of polymerase chain reaction (PCR) products in real-time. As opposed to standard PCR in which amplification products are quantitated after the PCR is completed, products in real-time quantitative PCR are quantitated as they accumulate. This is accomplished by including in the PCR reaction an oligonucleotide probe that anneals specifically between the forward and reverse PCR primers, and contains two fluorescent dyes. A reporter dye (e.g., FAM or JOE, obtained from either PE-Applied Biosystems, Foster City, Calif., Operon Technologies Inc., Alameda, Calif. or Integrated DNA Technologies Inc., Coralville, Iowa) is attached to the 5′ end of the probe and a quencher dye (e.g., TAMRA, obtained from either PE-Applied Biosystems, Foster City, Calif., Operon Technologies Inc., Alameda, Calif. or Integrated DNA Technologies Inc., Coralville, Iowa) is attached to the 3′ end of the probe. When the probe and dyes are intact, reporter dye emission is quenched by the proximity of the 3′ quencher dye. During amplification, annealing of the probe to the target sequence creates a substrate that can be cleaved by the 5′-exonuclease activity of Taq polymerase. […] With each cycle, additional reporter dye molecules are cleaved from their respective probes, and the fluorescence intensity is monitored at regular intervals by laser optics built into the ABI PRISM™ Sequence Detection System. In each assay, a series of parallel reactions containing serial dilutions of mRNA from untreated control samples generates a standard curve that is used to quantitate the percent inhibition after antisense oligonucleotide treatment of test samples.
# (§2) Prior to quantitative PCR analysis, primer-probe sets specific to the target gene being measured are evaluated for their ability to be “multiplexed” with a GAPDH amplification reaction. In multiplexing, both the target gene and the internal standard gene GAPDH are amplified concurrently in a single sample. In this analysis, mRNA isolated from untreated cells is serially diluted. Each dilution is amplified in the presence of primer-probe sets specific for GAPDH only, target gene only (“single-plexing”), or both (multiplexing). Following PCR amplification, standard curves of GAPDH and target mRNA signal as a function of dilution are generated from both the single-plexed and multiplexed samples. If both the slope and correlation coefficient of the GAPDH and target signals generated from the multiplexed samples fall within 10% of their corresponding values generated from the single-plexed samples, the primer-probe set specific for that target is deemed multiplexable. Other methods of PCR are also known in the art.
# (§3) PCR reagents were obtained from Invitrogen Corporation, (Carlsbad, Calif.). […] The RT reaction was carried out by incubation for 30 minutes at 48° C. Following a 10 minute incubation at 95° C. to activate the PLATINUM® Taq, 40 cycles of a two-step PCR protocol were carried out: 95° C. for 15 seconds (denaturation) followed by 60° C. for 1.5 minutes (annealing/extension).
# (§4) Gene target quantities obtained by real time RT-PCR are normalized using either the expression level of GAPDH, a gene whose expression is constant, or by quantifying total RNA using RiboGreen™ (Molecular Probes, Inc. Eugene, Oreg.). GAPDH expression is quantified by real time RT-PCR, by being run simultaneously with the target, multiplexing, or separately. Total RNA is quantified using RiboGreen™ RNA quantification reagent (Molecular Probes, Inc. Eugene, Oreg.). Methods of RNA quantification by RiboGreen™ are taught in Jones, L. J., et al, (Analytical Biochemistry, 1998, 265, 368-374). […]
# rat p38α mRNA = test: Rat p38α mRNA levels in NR-8383 cells, quantitative real-time PCR; format: cell-based; settings: 300 nM oligonucleotide with FuGENE 6, 24 hours, mRNA by quantitative real-time PCR, average of two experiments
# Description: as §1, §2, §3, §4
Substance,% Inhib. mouse p38α (mouse p38α mRNA),% Inhib. rat p38α (rat p38α mRNA)
"320132 (antisense TATTTGGAGAGTTCCCATGA; sugars from the 5' end e5 d10 e5, all phosphorothioate, methylation of C not given here) [compound 320132]",85%,56%
"320141 (antisense GCATGGCTGAGGGATAGCCT; sugars from the 5' end e5 d10 e5, all phosphorothioate, methylation of C not given here) [compound 320141]",83%,73%
"320109 (antisense GCCCCCATGAGATGGGTCAC; sugars from the 5' end e5 d10 e5, all phosphorothioate, methylation of C not given here) [compound 320109]",69%,34%
"320152 (antisense TTTGCCCTTTCTCCCCATCA; sugars from the 5' end e5 d10 e5, all phosphorothioate, methylation of C not given here) [compound 320152]",93%,66%
"320107 (antisense TAGGTCCTTTTGGCGTGAAT; sugars from the 5' end e5 d10 e5, all phosphorothioate, methylation of C not given here) [compound 320107]",84%,60%
"320126 (antisense AGGCATGCGCAAGAGCTTGG; sugars from the 5' end e5 d10 e5, all phosphorothioate, methylation of C not given here) [compound 320126]",90%,69%
"320145 (antisense GACCTCTGCACTGAGGTGAA; sugars from the 5' end e5 d10 e5, all phosphorothioate, methylation of C not given here) [compound 320145]",52%,44%
"320135 (antisense ACCCCCTTCCACCATGAAGG; sugars from the 5' end e5 d10 e5, all phosphorothioate, methylation of C not given here) [compound 320135]",95%,47%
"320162 (antisense CGCATTATCTGCTGAAGCTG; sugars from the 5' end e5 d10 e5, all phosphorothioate, methylation of C not given here) [compound 320162]",92%,62%
"320112 (antisense CGTTCTTCCGGTCAACAGCT; sugars from the 5' end e5 d10 e5, all phosphorothioate, methylation of C not given here) [compound 320112]",93%,58%
"320169 (antisense TTTGTTCTCACCTCATGGCT; sugars from the 5' end e5 d10 e5, all phosphorothioate, methylation of C not given here) [compound 320169]",92%,64%
"320130 (antisense AGGACTCCATTTCTTCTTGG; sugars from the 5' end e5 d10 e5, all phosphorothioate, methylation of C not given here) [compound 320130]",81%,61%
"320166 (antisense ACTGAATGTAGTTTCTTGCC; sugars from the 5' end e5 d10 e5, all phosphorothioate, methylation of C not given here) [compound 320166]",53%,35%
"320168 (antisense TCACCTCATGGCTTGGCATC; sugars from the 5' end e5 d10 e5, all phosphorothioate, methylation of C not given here) [compound 320168]",83%,56%
"320146 (antisense GGCACTGGAGACCTCTGCAC; sugars from the 5' end e5 d10 e5, all phosphorothioate, methylation of C not given here) [compound 320146]",74%,57%
"101755 (antisense CATCATCAGGGTCGTGGTAC; sugars from the 5' end e5 d10 e5, all phosphorothioate, methylation of C not given here) [compound 101755]",84%,74%
"320110 (antisense TCATCAGTGTGCCGAGCCAG; sugars from the 5' end e5 d10 e5, all phosphorothioate, methylation of C not given here) [compound 320110]",87%,54%
"320161 (antisense GCTGAAGCTGGTTAATATGG; sugars from the 5' end e5 d10 e5, all phosphorothioate, methylation of C not given here) [compound 320161]",80%,66%
"320138 (antisense TAAAGGCAGGGCCACAGGAG; sugars from the 5' end e5 d10 e5, all phosphorothioate, methylation of C not given here) [compound 320138]",87%,46%
"320167 (antisense CTTGCCTGTAAAAACACAGA; sugars from the 5' end e5 d10 e5, all phosphorothioate, methylation of C not given here) [compound 320167]",7%,11%
"320134 (antisense AACAAGAGGCACTTGAATGG; sugars from the 5' end e5 d10 e5, all phosphorothioate, methylation of C not given here) [compound 320134]",85%,74%
"320157 (antisense CGTCCAACACTGGAATTGGC; sugars from the 5' end e5 d10 e5, all phosphorothioate, methylation of C not given here) [compound 320157]",96%,71%
"320158 (antisense CCTTCTGGGCTCCAAATGAT; sugars from the 5' end e5 d10 e5, all phosphorothioate, methylation of C not given here) [compound 320158]",91%,71%
"320106 (antisense AACGGTCTCGACAGCTTCTT; sugars from the 5' end e5 d10 e5, all phosphorothioate, methylation of C not given here) [compound 320106]",91%,67%
"320160 (antisense GTTAATATGGTCTGTACCAG; sugars from the 5' end e5 d10 e5, all phosphorothioate, methylation of C not given here) [compound 320160]",53%,43%
"320154 (antisense TCATGTTTATAAAGGTGAAA; sugars from the 5' end e5 d10 e5, all phosphorothioate, methylation of C not given here) [compound 320154]",52%,50%
